Test results: patent US20160264655A1, “Treating cancers with drugs targeting CREB3L1” (Board of Regents, The University of Texas System, priority 2013, published 2016)
Read-outs that look alike come from different tables or passages of the source.

How the values were obtained:
MCF-7 cells = assay: Proliferation of MCF-7 cells with or without CREB3L1 overexpression; type: cell-based, human; details: for IC50: Homo sapiens, MCF7, 48 h, treated 2 days, read-out: IC50 for doxorubicin; for proliferation (cell counting, cellular DNA content): 15 nM for 6 days
Experimental: (§1) If proteolytic activation of CREB3L1 is required for doxorubicin to inhibit cell proliferation, then the amount of CREB3L1 expressed in cancer cells may determine their sensitivity to doxorubicin. To test this hypothesis, we analyzed SV589 cells, an immortalized line of human fibroblasts (12), and MCF-7 cells, a line of human breast cancer cells (13). […] In this experiment, cells were treated with doxorubicin for 2 days. To determine the effect of CREB3L1 expression on proliferation of the cells treated with doxorubicin for a longer period of time, we incubated MCF-7 and MCF7/pCREB3L1(H) cells with 15 nM doxorubicin for 6 days.

Huh7 cells [1] = assay: Proliferation of Huh7 cells; type: cell-based, human
Experimental: (§2) Inasmuch as CREB3L1 was required for doxorubicin to induce expression of p21, a well-characterized inhibitor of the cell cycle (11), we determined whether CREB3L1 was also required for the drug to inhibit cell proliferation. […] These concentrations of doxorubicin were not enough to trigger apoptosis of Huh7 cells, which became apparent only when the cells were treated with 5 μM of the compound.

CREB3L1 [2] = assay: CREB3L1 cleavage, immunoblot of membrane and nuclear fractions of Huh7 cells; type: cell-based, human; details: for amount of the nuclear form of CREB3L1 (cleavage of CREB3L1): Huh7 cells, compound alone
From the text: We fractionated human hepatoma Huh7 cells (6) into membrane and nuclear fractions, and used an antibody reacting against the NH2-terminal domain of CREB3L1 (3) to examine the cleavage of CREB3L1 through immunoblot analysis.

cell growth = assay: Requirement of CREB3L1 for inhibition of cell growth; type: cell-based
From the text: We then determined the relationship between doxorubicin-induced cleavage of CREB3L1 and DNA breaks caused by inhibition of topoisomerase. […] However, this effect was unaffected by knockdown of CREB3L1 expression.

human kidney tumor = assay: Xenograft of human kidney tumors in mice; type: in vivo
MCF7 = MCF7 xenograft in athymic nude mice; type: in vivo; details: MCF7 overexpressing CREB3L1 vs without overexpression
Experimental: In particular, the relationship between CREB3L1 expression and doxorubicin sensitivity is confirmed in a study of 45 lines of breast cancer cells from ATCC Breast Cancer Cell Panel. […] The relationship between CERB3L1 expression and doxorubicin sensitivity is also confirmed in vivo by injection of MCF7 with or without overexpression of CREB3L1 into athymic nude mice. These mice are then treated with different doses of doxorubicin, confirming that the dose of doxorubicin required to shrink tumors produced from MCF7 cells overexpressing CREB3L1 are lower than those required to shrink tumors generated from those without the overexpression.

ceramide synthesis = assay: Ceramide synthesis, tritium-labeled palmitate incorporation in Huh7 cells; type: cell-based, human
From the text: RIP of membrane-bound transcription factors is known to be a signal transduction pathway that transfers signals from the ER to nucleus (5). […] Daunorubicin, a chemotherapeutic drug derived from doxorubicin, was reported to induce de novo synthesis of ceramide (15).

CREB3L1 [3] = assay: CREB3L1 cleavage in wild type and S1P- or S2P-deficient CHO cells; type: cell-based, Chinese Hamster
collagen 1a1 and p21 = assay: Expression of CREB3L1 target genes in Huh7 cells; type: cell-based, human
Experimental: as §2

Huh7 cells [4] = assay: Apoptosis of Huh7 cells; type: cell-based, human
Experimental: as §2

histone γH2AX = assay: DNA breaks, histone γH2AX marker; type: cell-based
SV589 cells = assay: Growth inhibition of SV589 cells; type: cell-based, human; details: two siRNA duplexes
Experimental: as §1

[5] = patients treated with the drug; cited from earlier work
[6] = Huh7 cells with CREB3L1 knockdown

In the case of `COc1cc([C@@H]2c3cc4c(cc3[C@@H](O[C@@H]3O[C@@H]5CO[C@@H](C)O[C@H]5[C@H](O)[C@H]3O)[C@H]3COC(=O)[C@H]23)OCO4)cc(OC)c1O` [etoposide], the “effect of CREB3L1 overexpression on sensitivity” value (MCF-7 cells; MCF7 cells overexpressing CREB3L1) is reported as “did not increase their sensitivity”, the “effect of CREB3L1 knockdown on resistance” value (Huh7 cells [1]; [6]) is reported as “did not increase their resistance” and the “amount of the nuclear form of CREB3L1 (cleavage of CREB3L1)” value (“amount of the nuclear form of CREB3L1” below) (CREB3L1 [2]) is reported as “failed to induce cleavage of CREB3L1”.

With bleomycin the “requirement of CREB3L1 to inhibit cell growth” value (cell growth) was “not required”.

With `CC(=O)O[C@H]1C(=O)[C@@]2(C)[C@H]([C@H](OC(=O)c3ccccc3)[C@]3(O)C[C@H](OC(=O)[C@H](O)[C@@H](NC(=O)c4ccccc4)c4ccccc4)C(C)=C1C3(C)C)[C@]1(OC(C)=O)CO[C@@H]1C[C@@H]2O` [paclitaxel] the “requirement of CREB3L1 to inhibit cell growth” value (cell growth) was “not required”.

With `CCCCCCCCCCCCC/C=C/[C@@H](O)[C@H](CO)NC(=O)CCCCC` [C6-ceramide] the “inhibition of cell proliferation after CREB3L1 knockdown” value (Huh7 cells [1]; [6]) was “completely abolished the ability of C6-ceramide to inhibit cell proliferation” and the “amount of the nuclear form of CREB3L1” value (CREB3L1 [2]) was “stimulated CREB3L1 cleavage”.

With `COc1cccc2c1C(=O)c1c(O)c3c(c(O)c1C2=O)C[C@@](O)(C(=O)CO)C[C@@H]3O[C@H]1C[C@H](N)[C@H](O)[C@H](C)O1` [doxorubicin, Doxorubicin] the “effect compared with rapamycin” value (human kidney tumor; tumors expressing CREB3L1) was “better than rapamycin”, the tumor response (human kidney tumor; tumors expressing CREB3L1, dose about 7 times lower than clinical) was “profoundly inhibited” and the tumor response (human kidney tumor; tumors without CREB3L1 expression, dose about 7 times lower than clinical) was “did not respond”. The “doxorubicin sensitivity of kidney tumors” value (human kidney tumor; tumors without vs with CREB3L1 by 10H1 staining, day 3 to 21) was “much less doxorubicin sensitivity”, the IC50 (MCF-7 cells; MCF7/pCREB3L1(H), 300-fold CREB3L1 overexpression) was roughly 1 nM and the IC50 (MCF-7 cells; MCF7/pCREB3L1(L), 8-fold CREB3L1 overexpression) was 10 nM. The IC50 (MCF-7 cells; parental MCF-7 cells) was 500 nM, the “proliferation (cell counting, cellular DNA content)” value (MCF-7 cells; MCF7/pCREB3L1(H) cells) was “markedly blocked proliferation” and the “proliferation (cell counting, cellular DNA content)” value (MCF-7 cells; MCF-7 cells) was “did not affect proliferation”. For the same compound, the “dose required to shrink tumors” value (MCF7) was “lower”, the “concentration that blocks proliferation” value (Huh7 cells [1]; Huh7-shCREB3L1 cells) was greater than 500 nM and the “tritium-labeled palmitate incorporated into ceramide” value (ceramide synthesis) was “increased the amount of tritium-labeled palmitate incorporated into ceramide”. The “cleavage of CREB3L1 to the nuclear form” value (CREB3L1 [3]; mutant CHO cells deficient in either S1P or S2P) was “failed to produce the nuclear form of CREB3L1”, the “cleavage of CREB3L1 to the nuclear form” value (CREB3L1 [3]; wild type CHO cells) was “stimulated cleavage of CREB3L1” and the “induction of collagen 1a1 and p21” value (collagen 1a1 and p21; Huh7-shCREB3L1 cells) was “markedly blunted”. The “expression of collagen 1a1 and p21” value (collagen 1a1 and p21; Huh7-shControl cells) was “induced the expression of collagen 1a1 and p21”, the “concentration at which apoptosis became apparent” value (Huh7 cells [4]) was 5 µM and the “DNA breaks (histone γH2AX)” value (histone γH2AX) was “induced appearance of histone γH2AX”. For the same compound, the “amount of the nuclear form of CREB3L1” value (CREB3L1 [2]) was “markedly raised the amount of the nuclear form of CREB3L1”, the “effect of CREB3L1 siRNA knockdown on sensitivity” value (SV589 cells) was “more resistant” and the “clinically relevant concentration in the serum of patients” value [5] was less than 1 µM.

For `CCCCCCC(=O)CCCCCC/C=C/C[C@@H](O)[C@H](O)[C@@](N)(CO)C(=O)O` [Myriocin], the “effect of co-treatment on cell sensitivity to doxorubicin” value (Huh7 cells [1]; co-treatment with doxorubicin) was “rendered the cells more resistant to doxorubicin” and the “inhibition of doxorubicin-induced cleavage of CREB3L1” value (CREB3L1 [2]; co-treatment with doxorubicin) was “inhibited doxorubicin-induced cleavage of CREB3L1 in a dose-dependent manner”.
